Experimental data: patent US8343998B2, “Triazolothiadiazole inhibitor of c-Met protein kinase” (Vertex Pharmaceuticals Incorporated, priority 2008, dated 2013)
≈ marks a conversion by molar mass, not a printed value. Where “and” joins values, the source holds several entries; their conditions need not be identical. Equal values may be shown once. Read-outs that look alike come from different tables or passages of the source.

Assays:
[1] = Solubility of compound 1 crystalline free base in different solvents, by HPLC; assay type: physicochemical; conditions: thermodynamic from solid, crystalline free base slurry, room temperature, 4 day solution, read-out: Conc. FB (solubility)
Procedure: About 10 mg of compound 1, crystalline free base (FB), was loaded into a vial with a magnetic stir bar. About 150 μL of solvent were added to each vial. If compound 1 dissolved completely, more solid was added to the vial and stirring of the resulting slurry was continued at room temperature. The 4 day solution was filtered off using centrifuge filters and diluted in methanol to obtain solubility data by HPLC analysis. X-ray diffraction data of the crystals in the slurry were collected after 4 and 14 days.

[2] = target: T1, c-Met (Homo sapiens, UniProt P08581); test: Inhibition of c-Met activity in Snu5 gastric carcinoma cells (Snu5-AP1-Luc-Pest luciferase signal); assay type: cell-based; conditions: 6 hours, luciferase luminescence
T1 construct: is a human gastric carcinoma known to overexpress c-Met, which is constitutively active; host or cells: Snu5-AP1-Luc-Pest (Snu5 transduced with an AP1-luciferase-PEST reporter)
T1 sequence (P08581 25-1390): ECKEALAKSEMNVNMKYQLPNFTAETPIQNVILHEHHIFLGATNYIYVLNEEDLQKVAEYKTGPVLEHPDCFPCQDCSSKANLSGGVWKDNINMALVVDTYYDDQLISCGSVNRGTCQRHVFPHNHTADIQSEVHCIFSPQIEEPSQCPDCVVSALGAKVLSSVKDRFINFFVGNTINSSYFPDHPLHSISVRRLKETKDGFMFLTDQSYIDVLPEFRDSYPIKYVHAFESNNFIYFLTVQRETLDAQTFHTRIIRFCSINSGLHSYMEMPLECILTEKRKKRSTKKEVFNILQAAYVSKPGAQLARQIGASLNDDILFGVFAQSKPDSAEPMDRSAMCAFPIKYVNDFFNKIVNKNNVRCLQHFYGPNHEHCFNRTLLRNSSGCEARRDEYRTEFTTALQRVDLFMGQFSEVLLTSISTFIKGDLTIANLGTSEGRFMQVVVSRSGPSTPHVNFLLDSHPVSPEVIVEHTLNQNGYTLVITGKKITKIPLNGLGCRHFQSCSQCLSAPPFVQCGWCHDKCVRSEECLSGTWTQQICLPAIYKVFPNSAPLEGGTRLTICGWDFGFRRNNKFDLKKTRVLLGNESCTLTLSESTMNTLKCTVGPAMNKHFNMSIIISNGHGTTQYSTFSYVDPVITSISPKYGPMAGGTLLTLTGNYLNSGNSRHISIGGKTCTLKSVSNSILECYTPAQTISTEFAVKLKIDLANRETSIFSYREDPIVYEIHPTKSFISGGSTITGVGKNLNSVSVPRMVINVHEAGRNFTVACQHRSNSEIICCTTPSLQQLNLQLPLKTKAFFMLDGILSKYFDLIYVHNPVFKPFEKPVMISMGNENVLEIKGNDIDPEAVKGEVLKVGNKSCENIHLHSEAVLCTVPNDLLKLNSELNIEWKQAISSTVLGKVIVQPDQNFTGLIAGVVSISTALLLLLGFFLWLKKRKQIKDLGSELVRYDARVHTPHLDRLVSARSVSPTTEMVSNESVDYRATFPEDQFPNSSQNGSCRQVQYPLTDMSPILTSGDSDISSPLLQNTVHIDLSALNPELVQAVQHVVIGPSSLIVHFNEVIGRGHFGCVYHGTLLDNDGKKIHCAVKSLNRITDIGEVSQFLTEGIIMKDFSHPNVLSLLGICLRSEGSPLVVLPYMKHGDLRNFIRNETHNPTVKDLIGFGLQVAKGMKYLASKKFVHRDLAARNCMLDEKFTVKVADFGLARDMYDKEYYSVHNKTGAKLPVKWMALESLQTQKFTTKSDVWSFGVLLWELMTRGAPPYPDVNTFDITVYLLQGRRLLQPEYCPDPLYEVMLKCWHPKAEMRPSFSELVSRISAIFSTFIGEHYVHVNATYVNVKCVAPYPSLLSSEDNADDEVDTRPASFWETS
Text: Compound 1 was also screened for their ability to inhibit the Luciferase-induced signal in an engineered Snu5 cell line. Snu5 [obtained from American Type Culture Collection (Catalog number CRL-5973)] is a human gastric carcinoma known to overexpress c-Met, which is constitutively active. […] The constitutively active c-Met activates cellular pathways (principally MAP kinase), resulting in AP-1-induced transcription of luciferase-PEST and translation into the final product, the activity of which is quantifiable as a chemiluminescent readout upon the addition of luciferin (Steady-Glo from Promega.). Residual luminescence is strongly correlated to the inhibition of c-Met. A stable cell line was obtained by selecting the new cell line (Snu5-AP1-Luc-Pest) with puromycin. The cells were grown in complete media [Iscove's media (Invitrogen) containing 10% fetal bovine serum (FBS, Hyclone) and penicillin/gentamycin (Invitrogen)]. Compounds of the invention were dissolved in DMSO to make 10 mM initial stock solutions. Serial dilutions in DMSO were then made and transferred to complete medium to make a 10× solution. The Snu5-AP1-Luc-Pest cells were counted and diluted to 200,000-cells/mL solution. […] The plate was read on a 1450 Microbeta Liquid Scintillation and Luminescence Counter (Perkin-Elmer). The IC50 was calculated using a 4-parameter fit using the graphing software Prism (GraphPad).

[3] = target: T2, hERG (Homo sapiens, UniProt Q12809); test: hERG inhibition assay, whole cell recording in HEK293 cells expressing hERG; assay type: cell-based; conditions: hERG current, peak tail current
T2 construct: host or cells: HEK293
T2 sequence (Q12809 whole entry): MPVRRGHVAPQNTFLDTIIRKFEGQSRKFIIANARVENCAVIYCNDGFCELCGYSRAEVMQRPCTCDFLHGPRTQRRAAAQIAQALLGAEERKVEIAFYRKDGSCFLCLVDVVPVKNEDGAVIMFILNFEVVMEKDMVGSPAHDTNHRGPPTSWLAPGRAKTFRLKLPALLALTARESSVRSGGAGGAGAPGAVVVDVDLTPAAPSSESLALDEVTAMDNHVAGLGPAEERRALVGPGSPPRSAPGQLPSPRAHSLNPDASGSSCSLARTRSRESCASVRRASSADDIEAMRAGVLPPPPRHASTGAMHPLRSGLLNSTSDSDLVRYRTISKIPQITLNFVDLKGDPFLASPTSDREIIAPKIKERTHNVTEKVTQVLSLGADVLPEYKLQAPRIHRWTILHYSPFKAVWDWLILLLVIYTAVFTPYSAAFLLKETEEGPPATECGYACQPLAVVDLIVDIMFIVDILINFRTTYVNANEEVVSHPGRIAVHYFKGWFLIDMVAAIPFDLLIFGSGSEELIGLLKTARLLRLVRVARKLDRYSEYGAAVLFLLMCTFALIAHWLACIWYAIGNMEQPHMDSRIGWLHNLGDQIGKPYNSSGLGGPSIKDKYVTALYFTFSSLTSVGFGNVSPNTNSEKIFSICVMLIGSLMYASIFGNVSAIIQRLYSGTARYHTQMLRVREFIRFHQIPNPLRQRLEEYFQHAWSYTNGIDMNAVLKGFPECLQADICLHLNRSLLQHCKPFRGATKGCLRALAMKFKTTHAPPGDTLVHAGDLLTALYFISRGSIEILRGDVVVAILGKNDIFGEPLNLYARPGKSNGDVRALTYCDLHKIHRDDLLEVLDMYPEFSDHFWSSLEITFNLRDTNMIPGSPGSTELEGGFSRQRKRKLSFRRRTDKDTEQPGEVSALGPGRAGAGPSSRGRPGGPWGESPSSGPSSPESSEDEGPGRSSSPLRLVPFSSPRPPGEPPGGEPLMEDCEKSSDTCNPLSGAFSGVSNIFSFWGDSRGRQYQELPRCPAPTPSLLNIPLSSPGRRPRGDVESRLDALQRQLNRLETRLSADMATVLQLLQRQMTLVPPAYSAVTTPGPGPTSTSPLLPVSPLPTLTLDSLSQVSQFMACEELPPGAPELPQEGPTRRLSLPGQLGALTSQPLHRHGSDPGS
Procedure: Peak tail current was measured during the 2 second step to −50 mV.

[4] = target: T3, CYP1A2 (Homo sapiens, UniProt P05177); test: Stability in human recombinant CYP isoform; assay type: in vitro ADME; conditions: 120 minutes, 50 pmoles CYP/mL, NADPH, two separate studies (two lines)
T3 construct: host or cells: baculovirus-infected insect cells
T3 sequence (P05177 1-516): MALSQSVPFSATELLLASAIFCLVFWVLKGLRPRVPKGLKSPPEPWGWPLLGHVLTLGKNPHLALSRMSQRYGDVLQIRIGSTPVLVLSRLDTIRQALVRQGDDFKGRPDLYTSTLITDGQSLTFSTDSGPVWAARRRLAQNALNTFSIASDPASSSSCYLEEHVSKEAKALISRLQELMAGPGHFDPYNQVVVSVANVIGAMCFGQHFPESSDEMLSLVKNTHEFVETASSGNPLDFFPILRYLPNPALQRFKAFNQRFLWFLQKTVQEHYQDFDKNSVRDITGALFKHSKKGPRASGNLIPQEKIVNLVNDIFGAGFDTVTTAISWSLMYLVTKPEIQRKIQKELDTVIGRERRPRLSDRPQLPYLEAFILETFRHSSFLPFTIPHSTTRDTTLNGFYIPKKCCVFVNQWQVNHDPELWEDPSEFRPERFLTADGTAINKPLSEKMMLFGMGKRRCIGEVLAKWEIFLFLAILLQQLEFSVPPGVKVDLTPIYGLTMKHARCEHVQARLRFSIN
Procedure: (§1) The stability of compound 1 was evaluated in cDNA Baculovirus-insect cell-expressed human cytochrome P450 (CYP) isoforms CYP1A2, CYP2B6, CYP2C9, CYP2C19, CYP2D6, CYP2E1, and CYP3A4. Accordingly, the human recombinant cytochrome P450 isoforms at a final concentration of 50 pmoles of CYP/mL were incubated in phosphate buffer (pH 7.4) with 2.0 mM NADPH and compound 1 at compound concentrations of 1 μM and 10 μM. Sampling was conducted at 0 and 120 minutes and the amount of compound remaining was evaluated by LC/MS/MS analysis.

[5] = target: T4, CYP2B6 (Homo sapiens, UniProt P20813); test: Stability in human recombinant CYP isoform; assay type: in vitro ADME; conditions: 120 minutes, 50 pmoles CYP/mL, NADPH, two separate studies (two lines)
T4 construct: host or cells: baculovirus-infected insect cells
T4 sequence (P20813 1-491): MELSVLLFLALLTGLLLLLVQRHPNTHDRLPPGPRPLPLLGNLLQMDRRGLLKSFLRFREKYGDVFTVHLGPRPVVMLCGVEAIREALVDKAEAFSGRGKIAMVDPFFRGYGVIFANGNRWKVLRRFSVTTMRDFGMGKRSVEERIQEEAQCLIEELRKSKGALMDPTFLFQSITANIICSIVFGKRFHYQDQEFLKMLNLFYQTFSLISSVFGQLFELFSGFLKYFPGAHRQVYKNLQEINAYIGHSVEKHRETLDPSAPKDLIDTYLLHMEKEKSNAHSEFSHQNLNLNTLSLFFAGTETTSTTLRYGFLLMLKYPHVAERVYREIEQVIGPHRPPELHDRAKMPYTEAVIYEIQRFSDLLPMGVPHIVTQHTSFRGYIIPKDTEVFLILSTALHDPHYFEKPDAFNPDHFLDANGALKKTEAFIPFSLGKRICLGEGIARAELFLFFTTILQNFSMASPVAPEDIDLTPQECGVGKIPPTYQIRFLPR
Procedure: as §1

[6] = target: T5, CYP2C19 (Homo sapiens, UniProt P33261); test: Stability in human recombinant CYP isoform; assay type: in vitro ADME
T5 construct: host or cells: baculovirus-infected insect cells
T5 sequence (P33261 whole entry, canonical isoform): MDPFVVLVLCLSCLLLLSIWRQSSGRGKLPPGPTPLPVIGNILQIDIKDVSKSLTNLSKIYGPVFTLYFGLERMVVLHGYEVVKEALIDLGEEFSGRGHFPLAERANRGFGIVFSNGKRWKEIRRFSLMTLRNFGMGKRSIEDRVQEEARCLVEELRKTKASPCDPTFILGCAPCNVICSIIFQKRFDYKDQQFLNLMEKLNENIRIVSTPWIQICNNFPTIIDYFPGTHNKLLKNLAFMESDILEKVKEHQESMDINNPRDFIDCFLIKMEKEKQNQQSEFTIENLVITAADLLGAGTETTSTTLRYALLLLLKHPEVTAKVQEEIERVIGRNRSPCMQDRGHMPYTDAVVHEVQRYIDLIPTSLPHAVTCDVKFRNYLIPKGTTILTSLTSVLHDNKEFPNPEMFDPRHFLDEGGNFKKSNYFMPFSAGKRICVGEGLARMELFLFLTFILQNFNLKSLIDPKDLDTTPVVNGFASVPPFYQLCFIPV
Procedure: as §1

[7] = target: T6, CYP2C9 (Homo sapiens, UniProt P11712); test: Stability in human recombinant CYP isoform; assay type: in vitro ADME; conditions: 120 minutes, 50 pmoles CYP/mL, NADPH, two separate studies (two lines)
T6 construct: host or cells: baculovirus-infected insect cells
T6 sequence (P11712 whole entry, canonical isoform): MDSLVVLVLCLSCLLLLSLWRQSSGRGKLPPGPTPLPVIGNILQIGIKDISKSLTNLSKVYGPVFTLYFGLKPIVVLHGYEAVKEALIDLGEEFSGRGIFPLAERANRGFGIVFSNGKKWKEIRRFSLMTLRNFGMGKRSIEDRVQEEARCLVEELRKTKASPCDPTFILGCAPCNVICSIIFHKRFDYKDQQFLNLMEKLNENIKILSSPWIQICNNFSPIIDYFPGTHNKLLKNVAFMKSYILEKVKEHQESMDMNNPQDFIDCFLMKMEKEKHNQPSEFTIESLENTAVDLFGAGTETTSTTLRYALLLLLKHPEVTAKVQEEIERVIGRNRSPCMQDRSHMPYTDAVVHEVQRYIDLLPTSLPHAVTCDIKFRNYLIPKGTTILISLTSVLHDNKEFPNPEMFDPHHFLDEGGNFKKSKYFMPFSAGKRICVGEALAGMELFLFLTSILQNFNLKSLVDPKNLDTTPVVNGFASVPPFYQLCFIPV
Procedure: as §1

[8] = target: T7, CYP2D6 (Homo sapiens, UniProt P10635); test: Stability in human recombinant CYP isoform; assay type: in vitro ADME; conditions: 120 minutes, 50 pmoles CYP/mL, NADPH, two separate studies (two lines)
T7 construct: host or cells: baculovirus-infected insect cells
T7 sequence (P10635 whole entry, canonical isoform): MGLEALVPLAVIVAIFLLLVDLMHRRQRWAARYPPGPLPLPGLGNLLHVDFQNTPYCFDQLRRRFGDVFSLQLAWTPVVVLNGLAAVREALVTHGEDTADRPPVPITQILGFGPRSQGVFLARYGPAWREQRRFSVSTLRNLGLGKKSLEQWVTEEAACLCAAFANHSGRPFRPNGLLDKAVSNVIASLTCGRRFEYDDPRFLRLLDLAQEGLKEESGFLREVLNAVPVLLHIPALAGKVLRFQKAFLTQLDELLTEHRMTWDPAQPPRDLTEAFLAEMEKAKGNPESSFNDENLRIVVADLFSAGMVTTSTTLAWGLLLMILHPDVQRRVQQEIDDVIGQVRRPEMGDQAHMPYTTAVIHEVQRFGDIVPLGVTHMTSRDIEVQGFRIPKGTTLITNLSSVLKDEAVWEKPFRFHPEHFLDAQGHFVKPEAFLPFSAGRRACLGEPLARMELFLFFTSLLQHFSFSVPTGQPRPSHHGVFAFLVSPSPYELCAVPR
Procedure: as §1

[9] = target: T8, CYP2E1 (Homo sapiens, UniProt P05181); test: Stability in human recombinant CYP isoform; assay type: in vitro ADME; conditions: 120 minutes, 50 pmoles CYP/mL, NADPH, two separate studies (two lines)
T8 construct: host or cells: baculovirus-infected insect cells
T8 sequence (P05181 whole entry, canonical isoform): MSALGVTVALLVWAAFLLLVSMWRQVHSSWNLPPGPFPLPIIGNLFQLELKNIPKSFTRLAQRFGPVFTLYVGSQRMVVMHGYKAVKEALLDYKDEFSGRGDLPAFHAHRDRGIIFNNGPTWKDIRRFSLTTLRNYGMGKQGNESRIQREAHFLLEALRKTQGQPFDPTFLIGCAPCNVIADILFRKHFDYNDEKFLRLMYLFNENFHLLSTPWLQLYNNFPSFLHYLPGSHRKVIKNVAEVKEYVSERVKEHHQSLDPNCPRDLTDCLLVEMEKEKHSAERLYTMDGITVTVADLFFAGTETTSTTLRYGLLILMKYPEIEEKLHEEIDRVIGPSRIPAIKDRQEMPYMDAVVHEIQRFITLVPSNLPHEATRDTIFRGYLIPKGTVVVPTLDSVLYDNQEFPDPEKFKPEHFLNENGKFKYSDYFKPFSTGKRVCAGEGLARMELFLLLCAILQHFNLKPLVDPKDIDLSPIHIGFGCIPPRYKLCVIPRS
Procedure: as §1

[10] = target: T9, CYP3A4 (Homo sapiens, UniProt P08684); test: Stability in human recombinant CYP isoform; assay type: in vitro ADME
T9 construct: host or cells: baculovirus-infected insect cells
T9 sequence (P08684 whole entry, canonical isoform): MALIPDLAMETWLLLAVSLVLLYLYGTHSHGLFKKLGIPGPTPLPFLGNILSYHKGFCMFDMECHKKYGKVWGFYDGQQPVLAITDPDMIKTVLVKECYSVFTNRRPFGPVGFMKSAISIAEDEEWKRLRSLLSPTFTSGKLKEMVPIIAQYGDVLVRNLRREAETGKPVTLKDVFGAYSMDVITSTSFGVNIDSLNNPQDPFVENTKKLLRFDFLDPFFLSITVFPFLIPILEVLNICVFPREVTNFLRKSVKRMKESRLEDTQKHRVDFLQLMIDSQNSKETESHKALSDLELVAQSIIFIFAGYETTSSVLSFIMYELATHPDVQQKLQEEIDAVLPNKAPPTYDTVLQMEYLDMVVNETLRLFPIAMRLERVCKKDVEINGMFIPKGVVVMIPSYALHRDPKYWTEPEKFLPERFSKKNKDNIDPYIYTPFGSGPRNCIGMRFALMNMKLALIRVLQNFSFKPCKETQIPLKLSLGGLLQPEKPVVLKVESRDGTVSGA
Procedure: as §1

[11] = compound at 10 μM, 120 minutes, 50 pmoles CYP/mL, NADPH, two separate studies (two lines)

Q: Which solubility at 4 day ([1]; organic solvent or mixture, solvent 2-Methyl THF) does the source give for `C[C@@H](c1ccc2ncccc2c1)c1nnc2sc(-c3cnn(C)c3)nn12` [Compound 1, 6-((S)-1-(6-(1-methyl-1H-pyrazol-4-yl)-[1,2,4]triazolo[3,4-b][1,3,4]thiadiazol-3-yl)ethyl)quinoline] here?
A: The solubility at 4 day was 9.03 mg/mL (≈ 25 mM).

Q: And the solubility at 4 day ([1]; organic solvent or mixture, solvent Acetone)?
A: The solubility at 4 day was 14.3 mg/mL (≈ 39.5 mM).

Q: What about the solubility at 4 day ([1]; organic solvent or mixture, solvent Acetonitrile) of the same compound?
A: The solubility at 4 day was 9.76 mg/mL (≈ 27 mM).

Q: What about the solubility at 4 day ([1]; organic solvent or mixture, solvent Benzyl Alcohol) of the same compound?
A: The solubility at 4 day was 362 mg/mL (≈ 1000 mM).

Q: What about the solubility at 4 day ([1]; organic solvent or mixture, solvent Cumene) of the same compound?
A: Its solubility at 4 day is 2.52 mg/mL (≈ 6.97 mM).

Q: What about the solubility at 4 day ([1]; organic solvent or mixture, solvent DCM) of the same compound?
A: The solubility at 4 day was 116 mg/mL (≈ 322 mM).

Q: And the solubility at 4 day ([1]; organic solvent or mixture, solvent DME)?
A: Its solubility at 4 day is 16.1 mg/mL (≈ 44.4 mM).

Q: What about the solubility at 4 day ([1]; organic solvent or mixture, solvent DMSO) of the same compound?
A: Its solubility at 4 day is 67.7 mg/mL (≈ 187 mM).

Q: What about the solubility at 4 day ([1]; organic solvent or mixture, solvent Diiodomethane) of the same compound?
A: The solubility at 4 day was 81 mg/mL (≈ 224 mM).

Q: And the solubility at 4 day ([1]; organic solvent or mixture, solvent Dioxane)?
A: The solubility at 4 day was 36.8 mg/mL (≈ 102 mM).

Q: And the solubility at 4 day ([1]; organic solvent or mixture, solvent EtOAc)?
A: Its solubility at 4 day is 7.24 mg/mL (≈ 20 mM).

Q: And the solubility at 4 day ([1]; organic solvent or mixture, solvent Ethanol)?
A: Its solubility at 4 day is 42.1 mg/mL (≈ 116 mM).

Q: And the solubility at 4 day ([1]; organic solvent or mixture, solvent Ethylene Glycol)?
A: The solubility at 4 day was 35.3 mg/mL (≈ 97.8 mM).

Q: What about the solubility at 4 day ([1]; organic solvent or mixture, solvent Glycerol) of the same compound?
A: Its solubility at 4 day is 0.69 mg/mL (≈ 1.91 mM).

Q: What about the solubility at 4 day ([1]; organic solvent or mixture, solvent IPA) of the same compound?
A: Its solubility at 4 day is 7.92 mg/mL (≈ 21.9 mM).

Q: What about the solubility at 4 day ([1]; organic solvent or mixture, solvent MEK) of the same compound?
A: Its solubility at 4 day is 14.2 mg/mL (≈ 39.4 mM).

Q: And the solubility at 4 day ([1]; organic solvent or mixture, solvent MTBE)?
A: The solubility at 4 day was 0.3 mg/mL (≈ 0.83 mM).

Q: What about the solubility at 4 day ([1]; organic solvent or mixture, solvent Methanol) of the same compound?
A: The solubility at 4 day was 41 mg/mL (≈ 114 mM).

Q: And the solubility at 4 day ([1]; organic solvent or mixture, solvent Nitromethane)?
A: The solubility at 4 day was 44.4 mg/mL (≈ 123 mM).

Q: What about the solubility at 4 day ([1]; solvent water) of the same compound?
A: Its solubility at 4 day is 0.15 mg/mL (≈ 0.415 mM).

Q: And the IC50 [2]?
A: The IC50 was 0.023 µM.

Q: What about the IC50 [3] of the same compound?
A: The IC50 was 110 µM.

Q: And the “% remaining +/− SDEV” value ([4]; compound at 1 μM)?
A: Its value is 113 +/− 7.2% and 79 +/− 9.6%.

Q: And the “% remaining +/− SDEV” value ([4]; compound at 10 μM)?
A: The value was 96.7 +/− 4.3% and 86 +/− 7.8%.

Q: And the “% remaining +/− SDEV” value ([5]; compound at 1 μM)?
A: The value was 93 +/− 5.4% and 91.7 +/− 10.4%.

Q: And the “% remaining +/− SDEV” value ([5]; compound at 10 μM)?
A: The value was 99 +/− 4.8% and 101 +/− 1.4%.

Q: And the “% remaining +/− SDEV” value [6, 11]?
A: Its value is 40.3 +/− 2.2% and 34 +/− 3.3%.

Q: What about the “Metabolism by the CYP isoform, in words” value ([6]; summary of Table 4) of the same compound?
A: The value was “metabolized by both CYP2C19 and CYP3A4 isoforms”.

Q: What about the “% remaining +/− SDEV” value ([7]; compound at 1 μM) of the same compound?
A: Its value is 128 +/− 22.5% and 96 +/− 2.2%.

Q: What about the “% remaining +/− SDEV” value ([7]; compound at 10 μM) of the same compound?
A: The value was 101 +/− 4.4% and 101 +/− 8.5%.

Q: And the “% remaining +/− SDEV” value ([8]; compound at 1 μM)?
A: Its value is 102 +/− 3.6% and 125 +/− 44.2%.

Q: What about the “% remaining +/− SDEV” value ([8]; compound at 10 μM) of the same compound?
A: The value was 94.7 +/− 4.4% and 130 +/− 11%.

Q: And the “% remaining +/− SDEV” value ([9]; compound at 1 μM)?
A: Its value is 109 +/− 19% and 164 +/− 54.8%.

Q: What about the “% remaining +/− SDEV” value ([9]; compound at 10 μM) of the same compound?
A: Its value is 109 +/− 5.6% and 111 +/− 1.1%.

Q: And the “% remaining +/− SDEV” value [10, 11]?
A: The value was 31.8 +/− 2.1% and 56 +/− 14%.

Q: What about the “Metabolism by the CYP isoform, in words” value ([10]; summary of Table 4) of the same compound?
A: The value was “metabolized by both CYP2C19 and CYP3A4 isoforms”.
